According to patent US7569585B2, “1, 5-diaminopentan-3-ol compounds and related treatment methods” (Gruenenthal GmbH, priority 2001, dated 2009):

What follows are compounds tested against T1, human alpha2A-adrenergic receptor (Homo sapiens, UniProt P08913) (assay: Binding affinity to human alpha2A-adrenergic receptor ([3H]-MK-912 displacement, HT29 cell membrane preparation)). Conditions: compound concentration 10 NM [sic] (method: 10 μmol/l); displacement of 0.5 nmol/l [3H]-MK-912; HT29 membranes; pH 7.4.
T1 construct: human HT29 cells (RB-HAL2A, NEN, Zaventem, Belgium), which endogenously express the alpha2A-adrenergic receptor; purchased NEN, Zaventem, Belgium RB-HAL2A; host or cells: human HT29 cells (endogenous expression), membrane preparation
T1 sequence (P08913 1-465): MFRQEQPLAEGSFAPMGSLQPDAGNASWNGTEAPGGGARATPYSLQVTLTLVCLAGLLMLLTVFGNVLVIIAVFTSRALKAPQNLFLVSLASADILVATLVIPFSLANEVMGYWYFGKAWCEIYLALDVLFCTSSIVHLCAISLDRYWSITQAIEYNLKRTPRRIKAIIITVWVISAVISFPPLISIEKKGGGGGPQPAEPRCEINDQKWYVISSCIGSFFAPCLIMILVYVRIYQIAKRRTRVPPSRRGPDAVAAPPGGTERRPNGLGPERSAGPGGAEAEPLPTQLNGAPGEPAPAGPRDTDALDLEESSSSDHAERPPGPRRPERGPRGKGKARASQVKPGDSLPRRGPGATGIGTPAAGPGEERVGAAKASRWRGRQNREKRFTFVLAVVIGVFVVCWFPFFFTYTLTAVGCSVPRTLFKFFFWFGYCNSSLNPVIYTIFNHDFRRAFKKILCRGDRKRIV
Method: Method for Determining the Binding Affinity to Human Alpha2A-adrenergic Receptor
The affinity of the compounds according to the invention to the pain-relevant alpha2A-receptor was investigated as follows.
The receptor affinity of the compounds according to the invention to human alpha2A-adrenergic receptor was determined in a microtiter plate batch. For this purpose, the compounds to be tested were incubated in a concentration of 10 μmol/l with a receptor membrane preparation of human HT29 cells (RB-HAL2A, NEN, Zaventem, Belgium), which endogenously express the alpha2A-adrenergic receptor, at a protein concentration of 40 μg protein/250 μl incubation batch in the presence of 0.5 nmol/l of the radioactively marked ligands [3H]-MK-912 (NET-1059, NEN, Zaventem, Belgium) for 30 minutes, with exclusion of light, at ambient temperature. A 25 mmol/l sodium phosphate buffer at a pH of 7.4 was used as the buffer system. The unspecific bond was determined in the presence of 10 μmol/l phentolamine. After incubation, the microtiter plates were filtered on glass fiber microtiter filter plates (Whatman GF/B, Hassel, Munich) using a Brandel Cell Harvester (MPRI-96T type, Hassel, Munich) and after drying of the glass fiber filter plates and subsequent charging of the plates with 35 μl of a scintillator (Ultima Gold, Canberra-Packard, Freiburg) were measured in a microtiter plate counter (1450 Microbeta Trilux, PerkinElmer-Wallac, Freiburg) after a delay of at least 90 minutes. The glass fiber microtiter filter plates were each pretreated prior to filtration of the incubation plates for 30 minutes with 50 μl per indentation of a 25 mmol/l sodium phosphate buffer supplemented by 0.5% (v/v) polyethylene imine at a pH of 7.4. The percentage inhibition effect of the compounds was calculated as a displacement of the radioactive ligand from its specific bond to the human alpha2A-adrenergic receptor.
Determining the Binding Affinity to Human Alpha2A-adrenergic Receptor
The binding affinities to human alpha2A-adrenergic receptor were determined by the foregoing methods.
In the case of `OC1(Cc2ccc(Cl)cc2Cl)C(CN2CCCCC2)CCCC1CN1CCCCC1` (stereo not drawn) [1-(2,4-dichlorobenzyl)-2,6-bis-piperidin-1-ylmethyl-cyclohexanol], the inhibition at 10 µM is reported as 100%. Compound `OC1(c2ccc(F)c(Cl)c2)C(CN2CCCCC2)CCCC1CN1CCCCC1` (stereo not drawn) [1-(3-chloro-4-fluorophenyl)-2,6-bis-piperidin-1-ylmethyl-cyclohexanol] has an inhibition at 10 µM of 38%. Compound `OC1(c2cccc(C(F)(F)F)c2)C(CN2CCCCC2)CCCC1CN1CCCCC1` (stereo not drawn) [2,6-bis-piperidin-1-ylmethyl-1-(3-trifluoromethyl-phenyl)-cyclohexanol] has an inhibition at 10 µM of 56%. `OC1(c2ccc(Cl)c(C(F)(F)F)c2)C(CN2CCCCC2)CCCC1CN1CCCCC1` (stereo not drawn) [1-(4-chloro-3-trifluoromethyl-phenyl)-2,6-bis-piperidin-1-ylmethyl-cyclohexanol] gave an inhibition at 10 µM of 26%. `COc1ccccc1C1(O)C(CN2CCCCC2)CCCC1CN1CCCCC1` (stereo not drawn) [1-(2-methoxy-phenyl)-2,6-bis-piperidin-1-ylmethyl-cyclohexanol] gave an inhibition at 10 µM of 30%. In the case of `OC1(Cc2ccc(Cl)cc2)C(CN2CCCCC2)CCCC1CN1CCCCC1` (stereo not drawn) [1-(4-chlorobenzyl)-2,6-bis-piperidin-1-ylmethyl-cyclohexanol], the inhibition at 10 µM is reported as 88%. For `Cc1ccc(C)c(CC2(O)C(CN3CCCCC3)CCCC2CN2CCCCC2)c1` (stereo not drawn) [1-(2,5-dimethyl-benzyl)-2,6-bis-piperidin-1-ylmethyl-cyclohexanol], the inhibition at 10 µM was 100%. Work on `Cc1cccc(CC2(O)C(CN3CCCCC3)CCCC2CN2CCCCC2)c1` (stereo not drawn) [1-(3-methyl-benzyl)-2,6-bis-piperidin-1-ylmethyl-cyclohexanol] yielded an inhibition at 10 µM of 100%. `Cc1ccccc1CC1(O)C(CN2CCCCC2)CCCC1CN1CCCCC1` (stereo not drawn) [1-(2-methyl-benzyl)-2,6-bis-piperidin-1-ylmethyl-cyclohexanol] was tested, and the inhibition at 10 µM was 100%. Work on `OC1(Cc2cccc(Cl)c2)C(CN2CCCCC2)CCCC1CN1CCCCC1` (stereo not drawn) [1-(3-chlorobenzyl)-2,6-bis-piperidin-1-ylmethyl-cyclohexanol] yielded an inhibition at 10 µM of 98%. `OC1(Cc2ccc(F)cc2)C(CN2CCCCC2)CCCC1CN1CCCCC1` (stereo not drawn) [1-(4-fluorobenzyl)-2,6-bis-piperidin-1-ylmethyl-cyclohexanol] was tested, and the inhibition at 10 µM was 87%. Compound `COc1cccc(CC2(O)C(CN3CCCCC3)CCCC2CN2CCCCC2)c1` (stereo not drawn) [1-(3-methoxy-benzyl)-2,6-bis-piperidin-1-ylmethyl-cyclohexanol] has an inhibition at 10 µM of 80%. `OC1(c2cccc(Cl)c2)C(CN2CCCCC2)CCCC1CN1CCCCC1` (stereo not drawn) [1-(3-chlorophenyl)-2,6-bis-piperidin-1-ylmethyl-cyclohexanol] showed an inhibition at 10 µM of 51%. Work on `OC1(Cc2ccccc2Cl)C(CN2CCCCC2)CCCC1CN1CCCCC1` (stereo not drawn) [1-(2-chlorobenzyl)-2,6-bis-piperidin-1-ylmethyl-cyclohexanol] yielded an inhibition at 10 µM of 100%. In the case of `OC1(Cc2cccc(F)c2)C(CN2CCCCC2)CCCC1CN1CCCCC1` (stereo not drawn) [1-(3-fluorobenzyl)-2,6-bis-piperidin-1-ylmethyl-cyclohexanol], the inhibition at 10 µM is reported as 59%. `OC1(Cc2c(F)cccc2Cl)C(CN2CCCCC2)CCCC1CN1CCCCC1` (stereo not drawn) [1-(2-chloro-6-fluorobenzyl)-2,6-bis-piperidin-1-ylmethyl-cyclohexanol] was tested, and the inhibition at 10 µM was 68%. For `OC1(c2cc(Cl)cc(Cl)c2)C(CN2CCCCC2)CCCC1CN1CCCCC1` (stereo not drawn) [1-(3,5-dichlorophenyl)-2,6-bis-piperidin-1-ylmethyl-cyclohexanol], the inhibition at 10 µM was 33%. Compound `OC1(c2cccc(F)c2)C(CN2CCCCC2)CCCC1CN1CCCCC1` (stereo not drawn) [1-(3-fluorophenyl)-2,6-bis-piperidin-1-ylmethyl-cyclohexanol] has an inhibition at 10 µM of 48%.
